Strand notation (5' to 3'): a small letter for the sugar, then the base; units joined by * are phosphorothioate-linked, units joined directly phosphodiester-linked; [ ] holds rarer units or linkages, { } end groups; capitals alone tell only the bases. k = constrained ethyl (cEt); [5mC] = 5-methylcytosine; d = 2'-deoxy (DNA)
Each substance was assayed on human SMAD7 mRNA (assay: Antisense inhibition of human SMAD7 mRNA expression in Hep3B cells by 3-10-3 cEt gapmers, 10,000 nM, electroporation (Example 2)). Details: Hep3B cells, 10,000 nM antisense oligonucleotide, electroporation, approximately 24 hours, RT-PCR primer probe set RTS5062, relative to untreated control cells.
Type: cell-based
Procedure, shortened: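 Hep3B, 20,000 cells/well; electroporation, 10,000 nM ASO; ~24 h. Readout: SMAD7 mRNA by qRT-PCR (RTS5062), RIBOGREEN-normalised; % inhibition vs untreated.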

First: 798871 (kA*kA*kA*dG*d[5mC]*d[5mC]*dT*dT*dG*dA*dT*dG*dG*kA*kG*kA; antisense) [compound 798871]
Second: 799990 (kT*kT*kG*d[5mC]*dA*d[5mC]*d[5mC]*dT*dG*dG*d[5mC]*dA*dA*k[5mC]*k[5mC]*kT; antisense) [compound 799990]
The “% Inhibition” value of the first is higher: 20% for the first, 0% for the second.

“799972 (k[5mC]*kA*k[5mC]*dA*dA*dG*dG*dA*d[5mC]*d[5mC]*d[5mC]*dT*dT*kG*k[5mC]*kT; antisense) [compound 799972]” and “799950 (antisense kG*k[5mC]*kA*d[5mC]*dA*dA*dG*dT*d[5mC]*dA*d[5mC]*dT*dG*kG*k[5mC]*k[5mC]) [compound 799950]” are the same in “% Inhibition” value: 0% for the first, 0% for the second.

In the case of “799999 (kT*kT*kA*dG*dG*dA*dA*d[5mC]*dA*dA*dG*dG*dG*k[5mC]*kA*kA; antisense) [compound 799999]”, the “% Inhibition” value is reported as 23%.

Same assay, conditions: Hep3B cells, electroporation with 10,000 nM antisense oligonucleotide, approximately 24 hours, RTS5062, percent inhibition of SMAD7 mRNA relative to untreated control cells

First: 799609 (k[5mC]*k[5mC]*k[5mC]*d[5mC]*dA*dT*dG*dG*dA*dA*d[5mC]*dG*dA*kT*k[5mC]*kA; antisense) [compound 799609]
Second: 799630 (k[5mC]*k[5mC]*k[5mC]*dT*dA*dT*d[5mC]*d[5mC]*d[5mC]*dA*dG*dA*dG*k[5mC]*k[5mC]*kT; antisense) [compound 799630]
The “% Inhibition” value of the first is lower: 41% for the first, 43% for the second.

Compared with “799571 (k[5mC]*kA*kG*dA*dA*dA*dA*dG*dA*dT*dG*d[5mC]*dA*kG*kT*kT; antisense) [compound 799571]”, “799723 (antisense kA*kG*k[5mC]*d[5mC]*dA*dA*d[5mC]*d[5mC]*d[5mC]*dT*dG*dG*d[5mC]*kA*k[5mC]*k[5mC]) [compound 799723]” is lower in “% Inhibition” value: 46% for the first, 0% for the second.

Going from “799645 (k[5mC]*kA*kA*dA*dG*dA*dT*dG*dA*dT*dA*dG*d[5mC]*kT*kT*k[5mC]; antisense) [compound 799645]” to “799531 (k[5mC]*kT*kT*dT*dA*dG*d[5mC]*dA*dA*dT*dT*dT*d[5mC]*kA*kA*kA; antisense) [compound 799531]”, the “% Inhibition” value falls from 45% to 32%.

Same assay, conditions: Hep3B cells, electroporation with 10,000 nM antisense oligonucleotide, approximately 24 hours, SMAD7 mRNA by RT-PCR (RTS5062), relative to untreated control cells

First: 800059 (antisense kA*kA*kA*dA*d[5mC]*dA*dA*dG*dA*d[5mC]*dA*dG*dG*kG*kA*k[5mC]) [compound 800059]
Second: 798735 (antisense k[5mC]*k[5mC]*k[5mC]*d[5mC]*d[5mC]*dG*dG*d[5mC]*d[5mC]*dG*d[5mC]*dG*d[5mC]*k[5mC]*kG*kG) [compound 798735]
The “% Inhibition” value of the first is higher: 31% for the first, 0% for the second.

First: 799395 (antisense kT*kT*kA*d[5mC]*dA*dA*dA*dT*dA*d[5mC]*dA*dG*dA*kG*kA*kG) [compound 799395]
Second: 800043 (kT*kG*k[5mC]*d[5mC]*dA*dG*dG*d[5mC]*d[5mC]*dT*dG*dT*d[5mC]*kA*kG*k[5mC]; antisense) [compound 800043]
The “% Inhibition” value of the first is higher: 62% for the first, 31% for the second.

First: 799494 (antisense kA*kG*kG*dA*dT*dA*d[5mC]*dA*d[5mC]*dT*dT*dA*dA*kT*k[5mC]*kA) [compound 799494]
Second: 830086 (kT*kT*kT*dA*d[5mC]*dA*dG*dG*dA*dT*dA*d[5mC]*dA*k[5mC]*kT*kT; antisense) [compound 830086]
The “% Inhibition” value of the first is higher: 45% for the first, 40% for the second.

Going from “830108 (kT*kT*k[5mC]*dA*dT*dT*dA*dA*dG*d[5mC]*d[5mC]*d[5mC]*dG*k[5mC]*kT*k[5mC]; antisense) [compound 830108]” to “800019 (kG*kG*k[5mC]*dA*dA*dA*dA*d[5mC]*dT*d[5mC]*dA*d[5mC]*dA*kG*kT*k[5mC]; antisense) [compound 800019]”, the “% Inhibition” value rises from 54% to 61%.

Compared with “830129 (antisense k[5mC]*kA*k[5mC]*d[5mC]*dT*d[5mC]*d[5mC]*dG*dA*dG*dG*d[5mC]*dA*k[5mC]*k[5mC]*kA) [compound 830129]”, “798812 (k[5mC]*kT*k[5mC]*d[5mC]*dA*dG*dA*dA*dG*dA*dA*dG*dT*kT*kG*kG; antisense) [compound 798812]” is lower in “% Inhibition” value: 41% for the first, 0% for the second.

With “799962 (antisense k[5mC]*k[5mC]*kA*dA*d[5mC]*d[5mC]*d[5mC]*d[5mC]*dA*dG*dA*dG*dG*kT*kG*kA) [compound 799962]” the “% Inhibition” value was 0%.

Same assay, conditions: Hep3B cells, electroporation with 10,000 nM antisense oligonucleotide, approximately 24 hours, primer probe set RTS5062, relative to untreated control cells

First: 799034 (k[5mC]*kT*kT*dG*d[5mC]*d[5mC]*d[5mC]*dA*dG*dG*dT*dA*d[5mC]*kT*kG*k[5mC]; antisense) [compound 799034]
Second: 799176 (antisense kT*kG*kT*dT*dA*dA*dA*dG*dT*d[5mC]*dT*dA*dA*kA*k[5mC]*kA) [compound 799176]
The “% Inhibition” value of the first is higher: 12% for the first, 0% for the second.

First: 798993 (antisense k[5mC]*kA*k[5mC]*dA*d[5mC]*dT*d[5mC]*d[5mC]*dT*dG*dA*d[5mC]*dA*kA*kG*kT) [compound 798993]
Second: 799236 (kT*kA*kA*dA*d[5mC]*dT*d[5mC]*d[5mC]*dT*dT*dT*dA*dG*kA*kA*kA; antisense) [compound 799236]
The “% Inhibition” value of the first is lower: 37% for the first, 45% for the second.

First: 799222 (k[5mC]*kT*kT*dT*dT*dT*dT*dA*dA*dT*dT*dT*dG*kG*k[5mC]*kA; antisense) [compound 799222]
Second: 799238 (kA*kA*kT*dG*dG*dA*dA*d[5mC]*dA*dT*dA*dA*dA*k[5mC]*kT*k[5mC]; antisense) [compound 799238]
The “% Inhibition” value of the first is lower: 0% for the first, 17% for the second.

First: 798654 (k[5mC]*k[5mC]*k[5mC]*dT*dG*d[5mC]*dG*d[5mC]*dG*dG*d[5mC]*dT*d[5mC]*kT*k[5mC]*k[5mC]; antisense) [compound 798654]
Second: 799084 (antisense k[5mC]*kT*kT*dG*dG*dG*dA*dA*dG*d[5mC]*d[5mC]*d[5mC]*dA*kT*k[5mC]*kT) [compound 799084]
The “% inhibition of SMAD7 mRNA expression” value of the first is higher: 23% for the first, 0% for the second.

Compared with “798970 (antisense kT*k[5mC]*k[5mC]*dT*dG*d[5mC]*d[5mC]*dG*dA*dT*d[5mC]*dA*dT*kA*k[5mC]*k[5mC]) [compound 798970]”, “799092 (antisense kG*kG*k[5mC]*dA*d[5mC]*dT*dG*dG*dG*dT*dG*dA*dG*k[5mC]*kA*kA) [compound 799092]” is lower in “% inhibition of SMAD7 mRNA expression” value: 41% for the first, 30% for the second.

“799086 (antisense kG*kG*k[5mC]*dA*dG*d[5mC]*d[5mC]*d[5mC]*dT*dT*dG*dG*dG*kA*kA*kG) [compound 799086]” and “799484 (antisense k[5mC]*kG*k[5mC]*d[5mC]*dA*d[5mC]*d[5mC]*dT*dT*dT*dG*dG*d[5mC]*kT*kG*kG) [compound 799484]” are the same in “% inhibition of SMAD7 mRNA expression” value: 0% for the first, 0% for the second.

“799045 (kG*kG*kA*d[5mC]*dA*dG*dA*dG*d[5mC]*d[5mC]*dG*dT*dG*k[5mC]*kT*k[5mC]; antisense) [compound 799045]” was tested, and the “% inhibition of SMAD7 mRNA expression” value was 37%.

Same assay, conditions: Hep3B cells, electroporation, 10,000 nM antisense oligonucleotide, approximately 24 hours, RTS5062, relative to untreated control cells

First: 799270 (antisense kA*kG*kT*d[5mC]*dA*dG*dG*d[5mC]*dT*d[5mC]*dA*dA*dT*kG*kA*kG) [compound 799270]
Second: 799752 (antisense kT*kT*kA*dA*dA*dA*d[5mC]*dT*dG*dA*dG*d[5mC]*dT*kA*kA*kT) [compound 799752]
The “% inhibition of SMAD7 mRNA expression” value of the first is higher: 16% for the first, 0% for the second.

Same assay, conditions: SMAD7 mRNA, Hep3B cells, 10,000 nM antisense oligonucleotide, electroporation, approximately 24 hours, primer probe set RTS5062, relative to untreated control cells

Going from “772734 (kA*kG*kG*d[5mC]*dA*dG*dG*dG*d[5mC]*d[5mC]*dG*d[5mC]*dG*kA*kG*kG; antisense) [compound 772734]” to “829717 (antisense kA*kG*kT*d[5mC]*dT*d[5mC]*d[5mC]*d[5mC]*dG*dG*dA*dG*dG*k[5mC]*k[5mC]*kG) [compound 829717]”, the “% Inhibition” value rises from 16% to 28%.

First: 790605 (kA*kT*k[5mC]*dA*dT*dA*d[5mC]*dG*dA*dG*dT*dG*dT*kA*kT*kG; antisense) [compound 790605]
Second: 829750 (antisense k[5mC]*kG*kT*d[5mC]*d[5mC]*dT*d[5mC]*dG*d[5mC]*d[5mC]*dG*d[5mC]*d[5mC]*kG*kG*kG) [compound 829750]
The “% Inhibition” value of the first is lower: 32% for the first, 33% for the second.

Going from “772713 (kA*kT*kA*dA*d[5mC]*dA*d[5mC]*d[5mC]*d[5mC]*dA*dT*dA*dG*kA*kA*kA; antisense) [compound 772713]” to “829787 (antisense kG*kG*kA*dA*dT*dG*d[5mC]*d[5mC]*dT*dG*dA*dG*dA*kT*k[5mC]*k[5mC]) [compound 829787]”, the “% Inhibition” value rises from 24% to 30%.

Compared with “829719 (antisense kG*k[5mC]*k[5mC]*dA*dG*dT*d[5mC]*dT*d[5mC]*d[5mC]*d[5mC]*dG*dG*kA*kG*kG) [compound 829719]”, “829791 (kT*kT*k[5mC]*d[5mC]*d[5mC]*dG*dT*dA*dA*dG*dA*dT*dT*k[5mC]*kA*k[5mC]; antisense) [compound 829791]” is higher in “% Inhibition” value: 15% for the first, 38% for the second.

Same assay, conditions: SMAD7 mRNA, Hep3B cells, electroporation with 10,000 nM antisense oligonucleotide, approximately 24 hours, primer probe set RTS5062, relative to untreated control cells

First: 829969 (kG*kA*kA*d[5mC]*d[5mC]*d[5mC]*d[5mC]*d[5mC]*dA*dG*dG*dG*dA*kA*kT*kG; antisense) [compound 829969]
Second: 830004 (antisense kT*kA*kA*dA*dG*dG*d[5mC]*d[5mC]*d[5mC]*dA*dG*d[5mC]*d[5mC]*kA*kT*kG) [compound 830004]
The “% Inhibition” value of the first is lower: 17% for the first, 24% for the second.

First: 829919 (antisense k[5mC]*kG*kA*dG*dT*dG*dT*dA*dT*dG*dA*dG*dT*kT*kG*kT) [compound 829919]
Second: 829963 (k[5mC]*k[5mC]*kT*dA*dG*dT*dT*d[5mC]*dG*d[5mC]*dA*dG*dA*kG*kT*k[5mC]; antisense) [compound 829963]
The “% Inhibition” value of the first is higher: 47% for the first, 46% for the second.
